Active and inactive are the calls of the source. The rule behind the calls is not given here. Bounds are passed on as bounds.

A short description of data set [1]: Inhibition of Influenza virus A/X-31 RNA dependent RNA polymerase using ApG primer [adenyl (3'-5') guanosine] and [8-3H]GTP after 1 hr by filter-based assay. The arrangement: species or system Influenza A virus (A/X-31(H3N2)).
The test system of data set [2] is Influenza A virus. As to the kind of experiment: microbe, parasite or virus in culture. Particulars: MDCK, 72 h.
Description: Antiviral activity against Influenza virus A/X-31 infected in MDCK cells assessed as reduction in viral replication at 3 days post infection by microscopic analysis
In data set [3] the test system is Influenza B virus. As to the kind of experiment: microbe, parasite or virus in culture. Particulars: Ned/537/05, MDCK, 72 h.
Description: Antiviral activity against Influenza virus B/Ned/537/05 infected in MDCK cells assessed as reduction in viral replication at 3 days post infection by formazan-based MTS assay
The nature of data set [4]: Cytotoxicity against HGPRT deficient 6-thioguanine-resistant MDCK cells assessed as change in cell morphology after 3 days by microscopic analysis. Format: cell-based, Canis lupus familiaris. Particulars: dog.
Data set [5] in a line: Cytotoxicity against MDCK cells assessed as change in cell morphology after 3 days by microscopic analysis. Format: cell-based, Canis lupus familiaris. Particulars: dog.
Data set [6] in a line: Cytotoxicity against MDCK cells assessed as reduction in cell viability after 3 days by formazan-based MTS assay. The arrangement: species or system Canis lupus familiaris. Particulars: dog.
Data set [7] has as its system Influenza B virus. In words: microbe, parasite or virus in culture. Particulars: Ned/537/05, MDCK, 72 h. This is another data set of the same source.
Description: Antiviral activity against Influenza virus B/Ned/537/05 infected in MDCK cells assessed as reduction in viral replication at 3 days post infection by microscopic analysis
Data set [8] concerns Influenza A virus. In words: microbe, parasite or virus in culture. Particulars: MDCK, 72 h. This is another data set of the same source.
Description: Antiviral activity against Influenza virus A/X-31 infected in MDCK cells assessed as reduction in viral replication at 3 days post infection by formazan-based MTS assay
The nature of data set [9]: Inhibition of Influenza virus B/Ned/537/05 RNA dependent RNA polymerase using ApG primer [adenyl (3'-5') guanosine] and [8-3H]GTP after 1 hr by filter-based assay.
Data set [10] in a line: Half life of the compound in 25 mM phosphate buffe at pH 1.5 to 7.3 by RP-HPLC analysis. Type of data set: physicochemical. Particulars: phosphate buffer.
Data set [11] is described as follows: Prodrug activation in phosphate buffer at pH 7.3 assessed as half life for T-1105-RMP formation up to 332 hrs by RP-HPLC-UV analysis. Format: physicochemical. Particulars: pH 7.3, 332 h.
Data set [12] relates to MDCK. As to the kind of experiment: Prodrug activation in MDCK cells assessed as T-1105-RDP formation at 500 uM after 2 hrs by RP-HPLC-UV analysis. Type of data set: cell-based, Canis lupus familiaris. Particulars: dog.
In data set [13] the test system is MDCK. As to the kind of experiment: Prodrug activation in MDCK cells assessed as T-1105-RMP formation at 450 uM up to 4 hrs by RP-HPLC-UV analysis. Type of data set: cell-based, Canis lupus familiaris. Particulars: dog.
Data set [14] relates to MDCK. In words: Prodrug activation in MDCK cells assessed as T-1105-RTP formation at 450 uM up to 4 hrs by RP-HPLC-UV analysis. Format: cell-based, Canis lupus familiaris. Particulars: dog.
The nature of data set [15]: Drug metabolism in MDCK cells assessed as 4-((((((2R,3S,4R,5R)-5-(3-carbamoyl-2-oxopyrazin-1(2H)-yl)-3,4-dihydroxytetrahydrofuran-2-yl)methoxy)(hydroxy)phosphoryloxy)(hydroxy)phosphoryloxy)methyl)phenyl decanoate formation at 450 uM up to 4 hrs by RP-HPLC-UV analysis. Type of data set: ADME, cell-based, Canis lupus familiaris. Particulars: dog.
A short description of data set [16]: Drug metabolism in MDCK cells assessed as T-1105-RDP formation at 450 uM up to 4 hrs by RP-HPLC-UV analysis. Format: ADME, cell-based, Canis lupus familiaris. Particulars: dog.
In data set [17] the test system is MDCK. Type of data set: cell-based, Canis lupus familiaris. Particulars: dog, 2 h, 500 µM.
The subject of data set [18] is MDCK. In words: Prodrug activation in HGPRT deficient MDCK cells assessed as T-1105-RMP formation at 465 uM after 1 to 840 mins by RP-HPLC-UV analysis. Format: cell-based, Canis lupus familiaris. Particulars: dog.
Data set [19] concerns MDCK. As to the kind of experiment: Prodrug activation in MDCK cells assessed as T-1105-RMP formation at 465 uM after 1 to 840 mins by RP-HPLC-UV analysis. Format: cell-based, Canis lupus familiaris. Particulars: dog.
Data set [20] deals with Influenza A virus. Format: functional, organism-based. Particulars: Influenza A virus (A/X-31(H3N2)); MDCK; 250 uM.
Data set [21] concerns Influenza A virus. Type of data set: functional, organism-based. Particulars: Influenza A virus (A/X-31(H3N2)); MDCK; 250 uM. The source holds these as a separate data set.
In data set [22] the test system is Influenza A virus. Type of data set: functional, organism-based. Particulars: Influenza A virus (A/X-31(H3N2)); MDCK; 100 uM.
The target of data set [23] is T1, Liver carboxylesterase (Sus scrofa, UniProt Q29550).
T1 sequence (Q29550 whole entry): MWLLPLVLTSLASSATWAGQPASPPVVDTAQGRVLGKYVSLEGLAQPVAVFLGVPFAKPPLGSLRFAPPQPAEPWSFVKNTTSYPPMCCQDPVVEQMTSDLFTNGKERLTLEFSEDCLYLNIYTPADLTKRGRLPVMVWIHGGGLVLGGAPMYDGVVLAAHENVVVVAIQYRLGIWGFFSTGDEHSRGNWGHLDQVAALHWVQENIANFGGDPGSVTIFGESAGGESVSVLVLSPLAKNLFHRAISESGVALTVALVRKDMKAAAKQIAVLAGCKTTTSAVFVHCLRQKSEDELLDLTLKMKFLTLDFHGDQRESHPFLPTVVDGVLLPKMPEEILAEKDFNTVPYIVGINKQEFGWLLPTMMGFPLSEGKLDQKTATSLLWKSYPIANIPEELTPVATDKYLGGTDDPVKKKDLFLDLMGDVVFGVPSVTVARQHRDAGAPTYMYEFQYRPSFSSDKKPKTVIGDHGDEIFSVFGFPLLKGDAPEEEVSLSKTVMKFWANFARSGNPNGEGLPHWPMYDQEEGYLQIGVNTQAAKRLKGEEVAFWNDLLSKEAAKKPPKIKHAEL
As to the kind of experiment: Drug metabolism assessed as pig liver esterase mediated 4-(((((((2R,3S,4R,5R)-5-(3-carbamoyl-2-oxopyrazin-1(2H)-yl)-3,4-dihydroxytetrahydrofuran-2-yl)methoxy)(hydroxy)phosphoryloxy)(hydroxy)phosphoryloxy)(hydroxy)phosphoryloxy)methyl)phenyl decanoate formation at 450 uM after 1 to 8 hrs by RP-HPLC-UV analysis. Type of data set: ADME. Particulars: isolated protein.

With `Nc1nc2c(ncn2[C@@H]2O[C@H](COP(=O)(O)OP(=O)(O)OP(=O)(O)O)C[C@H]2O)c(=O)[nH]1`, it took 16 µM to reach half-maximal inhibition in data set [1] (IC50).

On to `NC(=O)c1nccn([C@@H]2O[C@H](CO)[C@@H](O)[C@H]2O)c1=O`, for which the EC50 in data set [2] was determined as 58 µM; in data set [3] it was 19 µM; in [7], 24 µM; in [8] it was 52 µM. Moreover, the MCC at 72 h in data set [4] and in data set [5] was above 250 µM throughout. For the same molecule, the CC50 at 72 h in data set [6] is above 250 µM.

As for `Nc1nc2c(ncn2[C@@H]2O[C@H](COP(=O)(O)OP(=O)(O)OP(=O)(O)O)[C@@H](O)[C@H]2F)c(=O)[nH]1`, the IC50 in data set [9] turned out to be 4.4 µM; in data set [1], 2.5 µM.

With `Nc1ncnc2c1ncn2[C@H]1CC[C@@H](COP2(=O)OCc3ccccc3O2)O1` (stereo not given in full), the half-life in [10] is 10 to 45 h.

Turning to `Cc1cccc2c1OP(=O)(OC[C@H]1O[C@@H](n3ccnc(C(N)=O)c3=O)[C@H](O)[C@@H]1O)OC2` (stereo not given in full), in data set [11], the t1/2 worked out at 1.2 h. Besides, the EC50 is 280 µM in [2], 135 µM in data set [3], 176 µM in data set [7] and above 400 µM in data set [8]. For the same molecule, the MCC at 72 h in data set [4] and in data set [5] was above 400 µM in each case. Further, in data set [6], the CC50 at 72 h was above 400 µM.

Consider `CC(C)(C)c1cc2c(c(C(C)(C)C)c1)OP(=O)(OC[C@H]1O[C@@H](n3ccnc(C(N)=O)c3=O)[C@H](O)[C@@H]1O)OC2` (stereo not given in full), for which, in data set [11], the t1/2 is 16 h.

`NC(=O)c1nc(Br)cn([C@@H]2O[C@H](CO)[C@@H](O)[C@H]2O)c1=O`: the EC50 in data set [2], in data set [3], in data set [7] and in [8] was above 250 µM throughout. In addition, the MCC at 72 h in data set [4] and in [5] was above 250 µM in each case. Moreover, the CC50 at 72 h in data set [6] was above 250 µM.

With `CCCCCCCCCCCCCCC(=O)Oc1ccc(COP(=O)(OCc2ccc(OC(=O)CCCC)cc2)OP(=O)(O)OC[C@H]2O[C@@H](n3ccnc(C(N)=O)c3=O)[C@H](O)[C@@H]2O)cc1.CCN(CC)CC` (stereo not given in full), the Drug metabolism entry in [12] is “Metabolite_Detected”; in data set [13], “Metabolite_Detected”; in [14], “Metabolite_Notdetected”; in data set [15] it was “Metabolite_Detected”; in [16], “Metabolite_Detected”; in data set [17], “Metabolite_Detected”. For the same molecule, the IC50 in [9] and in data set [1] was 49 to 126 µM each time. The EC50 in data set [2] stood at 1.5 µM; in data set [3], 0.58 µM; in [7], 0.67 µM; in [8], 1.6 µM. Besides, the MCC at 72 h was found to be 16 µM in data set [4] and 21 µM in data set [5]. In data set [6], the CC50 at 72 h worked out at 31 µM.

Take `NC(=O)c1nc(F)cn([C@@H]2O[C@H](COP(=O)(O)OP(=O)(O)OP(=O)(O)O)[C@@H](O)[C@H]2O)c1=O`: the IC50 in data set [9] and in [1] was 2.7 µM in each case.

As for `NC(=O)c1ncn([C@@H]2O[C@H](CO)[C@@H](O)[C@H]2O)n1` [RIBAVIRIN], the EC50 came to 4.5 µM in data set [3], 5.9 µM in [7] and 13 µM in [8]. For the same molecule, the MCC at 72 h came to 35 µM in data set [4] and 59 µM in [5]. Further, the CC50 at 72 h in data set [6] was above 100 µM.

On to `NC(=O)c1nccn([C@@H]2O[C@H](COP(=O)(O)OP(=O)(O)OP(=O)(O)O)[C@@H](O)[C@H]2O)c1=O`, for which the Drug metabolism result in data set [18] and in data set [19] was “Metabolite_Detected” throughout. In addition, the results for the IC50 in data set [9] and in data set [1] were 0.69 µM and 0.48 to 9.8 µM, respectively.

Turning to `NC(=O)c1nc(F)cnc1O`, the EC50 turned out to be 24 µM in data set [2], 8.3 µM in data set [3], 9 µM in data set [7] and 26 µM in [8]. The inhibition entry in [20] is “inactive”. Moreover, the inhibition entry in data set [21] and in [22] was “Active” in each case.

Molecule `COc1ccc2c(c1)COP(=O)(OC[C@@H]1C=C[C@H](n3cnc4c(N)ncnc43)O1)O2` (stereo not given in full) yielded a half-life in data set [10] of 10 to 45 h.

`CCCCCCCCCC(=O)Oc1ccc(COP(=O)(OCc2ccc(OC(=O)CCCCCCCCC)cc2)OP(=O)(O)OP(=O)(O)OC[C@H]2O[C@@H](n3ccnc(C(N)=O)c3=O)[C@H](O)[C@@H]2O)cc1.CCN(CC)CC.CCN(CC)CC`: the Drug metabolism result in data set [12] was “Metabolite_Detected”; in data set [13], “Metabolite_Detected”; in data set [23], “Metabolite_Detected”; in data set [14] it was “Metabolite_Notdetected”; in [15], “Metabolite_Detected”; in [16], “Metabolite_Detected”. Moreover, the Drug metabolism result in data set [17] is listed as “Metabolite_Detected”. The IC50 in data set [9] and in data set [1] was 49 to 126 µM each time. Also, the EC50 in data set [2] was 2.6 µM; in [3], 2.4 µM; in data set [7] it was 2.6 µM; in data set [8], 3.6 µM. The MCC at 72 h turned out to be 13 µM in data set [4] and 16 µM in [5]. For the same molecule, the CC50 at 72 h in data set [6] was 30 µM.

With `CCCCCCCCCCCCCCC(=O)Oc1ccc(COP(=O)(OCc2ccc(OC(=O)CCCC)cc2)OP(=O)(O)OP(=O)(O)OC[C@H]2O[C@@H](n3ccnc(C(N)=O)c3=O)[C@H](O)[C@@H]2O)cc1.CCN(CC)CC.CCN(CC)CC` (stereo not given in full), the Drug metabolism result is given as “Metabolite_Detected” in data set [12]; “Metabolite_Detected” in [13]; “Metabolite_Notdetected” in [14]; “Metabolite_Detected” in data set [15]; “Metabolite_Detected” in [16]; “Metabolite_Detected” in [17]. Further, the EC50 in data set [2] came to 6 µM; in data set [3], 6 µM; in data set [7], 9.9 µM; in data set [8], 6.7 µM. Besides, the MCC at 72 h in data set [4] and in data set [5] was 16 µM each time. Also, the CC50 at 72 h in data set [6] is 38 µM.

As for `Cc1cccc2c1OP(=O)(OC[C@@H]1CC[C@H](n3cnc4c(=O)[nH]cnc43)O1)OC2` (stereo not given in full), the half-life in data set [10] is 10 to 45 h.

In the case of `CC(=O)O[C@@H]1[C@H](OC(C)=O)[C@@H](COP2(=O)OCc3cccc(C)c3O2)O[C@H]1n1ccnc(C(N)=O)c1=O` (stereo not given in full), the EC50 in [2] was above 400 µM; in data set [3], 128 µM; in data set [7] it was above 400 µM; in [8], above 400 µM. The MCC at 72 h in [4] and in data set [5] was 400 µM throughout. Moreover, in data set [6], the CC50 at 72 h is above 400 µM.

`Cc1cccc2c1OP(=O)(OC[C@@H]1C=C[C@H](n3cnc4c(=O)[nH]cnc43)O1)OC2` (stereo not given in full): the half-life in data set [10] lay within 10 to 45 h.

Source of the values: ChEMBL document CHEMBL4130627, “Prodrugs of the Phosphoribosylated Forms of Hydroxypyrazinecarboxamide Pseudobase T-705 and Its De-Fluoro Analogue T-1105 as Potent Influenza Virus Inhibitors” (J Med Chem, 2018).
